Compound: CC[C@@H]1C(=O)N(C)c2cnc(Nc3ccc(C(=O)NC4CCN(C)CC4)cc3OC)nc2N1C1CCCC1 [BI-2536] + CC(=O)Nc1cccc(-n2c(=O)n(C3CC3)c(=O)c3c(Nc4ccc(I)cc4F)n(C)c(=O)c(C)c32)c1 [Trametinib] (partner 0.02 µM)
Assay: relative viability (nuclei count vs DMSO), 5 days (fraction); higher = more cells survive
Conditions: first compound 0.01 µM
Summary of the method: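 Each reported value is a median over duplicate plates. It expresses relative viability: treated-well nuclei count divided by vehicle-well nuclei count. Lung cancer cell lines in 1536-well plates were dosed by pin tool a day after seeding, alone with one drug or with a fixed anchor-drug dose plus five library-drug doses (not always all listed) in √10 steps, and nuclei were counted after 5 days.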

Compared with HARA, NCI-H322M is lower in relative viability: 0.765 for the first, 0.535 for the second.

First: LCLC-97TM1
Second: NCI-H2009
The relative viability of the first is lower: 0.189 for the first, 0.262 for the second.

Compared with A-427, NCI-H441 is lower in relative viability: 0.733 for the first, 0.517 for the second.

Compared with NCI-H661, NCI-H1734 is higher in relative viability: 0.587 for the first, 0.723 for the second.

Compared with NCI-H460, NCI-H2347 is higher in relative viability: 0.205 for the first, 0.261 for the second.

First: SK-LU-1
Second: NCI-H1395
The relative viability of the first is lower: 0.347 for the first, 1.06 for the second.

Compared with 201T, NCI-H1915 is lower in relative viability: 0.717 for the first, 0.29 for the second.

Going from HCC-827 to LXF-289, the relative viability rises from 0.594 to 0.68.

First: NCI-H23
Second: NCI-H647
The relative viability of the first is lower: 0.372 for the first, 0.482 for the second.

Compared with CAL-12T, NCI-H1651 is higher in relative viability: 0.344 for the first, 0.786 for the second.

First: EPLC-272H
Second: NCI-H2228
The relative viability of the first is lower: 0.286 for the first, 0.312 for the second.

Compared with NCI-H1792, NCI-H1355 is lower in relative viability: 0.604 for the first, 0.428 for the second.

Going from NCI-H3122 to NCI-H1437, the relative viability rises from 0.226 to 0.636.

First: NCI-H1755
Second: NCI-H2023
The relative viability of the first is higher: 0.78 for the first, 0.53 for the second.

Compared with HCC-15, NCI-H1793 is lower in relative viability: 0.389 for the first, 0.37 for the second.

Work on PC-14 yielded a relative viability of 0.847.

Same assay, conditions: first compound 0.03162 µM

First: BEN
Second: HARA
The relative viability of the first is lower: 0.813 for the first, 0.971 for the second.

Compared with NCI-H322M, LCLC-97TM1 is lower in relative viability: 0.473 for the first, 0.179 for the second.

Going from NCI-H2009 to A-427, the relative viability rises from 0.246 to 0.662.

Compared with NCI-H441, NCI-H661 is higher in relative viability: 0.29 for the first, 0.427 for the second.

Compared with NCI-H1734, NCI-H460 is lower in relative viability: 0.638 for the first, 0.154 for the second.

Going from NCI-H2347 to SK-LU-1, the relative viability rises from 0.302 to 0.514.

First: NCI-H1395
Second: 201T
The relative viability of the first is lower: 0.635 for the first, 0.741 for the second.

Going from NCI-H1915 to HCC-827, the relative viability rises from 0.332 to 0.538.

Compared with LXF-289, NCI-H23 is lower in relative viability: 0.654 for the first, 0.464 for the second.

First: NCI-H647
Second: CAL-12T
The relative viability of the first is higher: 0.458 for the first, 0.338 for the second.

First: NCI-H1651
Second: EPLC-272H
The relative viability of the first is higher: 0.868 for the first, 0.261 for the second.

First: NCI-H2228
Second: NCI-H1792
The relative viability of the first is higher: 0.51 for the first, 0.417 for the second.

First: NCI-H1355
Second: NCI-H3122
The relative viability of the first is higher: 0.47 for the first, 0.239 for the second.

Going from NCI-H1437 to NCI-H1755, the relative viability rises from 0.483 to 0.784.

Compared with NCI-H2023, HCC-15 is lower in relative viability: 0.528 for the first, 0.319 for the second.

Compared with NCI-H1793, PC-14 is higher in relative viability: 0.435 for the first, 0.71 for the second.

Same assay, conditions: first compound 0.1 µM

Going from BEN to HARA, the relative viability falls from 0.959 to 0.545.

Going from NCI-H322M to LCLC-97TM1, the relative viability falls from 0.564 to 0.2.

Going from NCI-H2009 to A-427, the relative viability rises from 0.336 to 0.605.

First: NCI-H441
Second: NCI-H661
The relative viability of the first is lower: 0.158 for the first, 0.291 for the second.

Compared with NCI-H1734, NCI-H460 is lower in relative viability: 0.593 for the first, 0.0447 for the second.

Going from NCI-H2347 to SK-LU-1, the relative viability rises from 0.282 to 0.335.

Compared with NCI-H1395, 201T is higher in relative viability: 0.611 for the first, 0.745 for the second.

Going from NCI-H1915 to HCC-827, the relative viability rises from 0.317 to 0.506.

Compared with LXF-289, NCI-H23 is lower in relative viability: 0.64 for the first, 0.201 for the second.

First: NCI-H647
Second: CAL-12T
The relative viability of the first is lower: 0.213 for the first, 0.383 for the second.

First: NCI-H1651
Second: EPLC-272H
The relative viability of the first is higher: 0.789 for the first, 0.191 for the second.

Compared with NCI-H2228, NCI-H1792 is higher in relative viability: 0.184 for the first, 0.395 for the second.

Going from NCI-H1355 to NCI-H3122, the relative viability falls from 0.46 to 0.209.

Compared with NCI-H1437, NCI-H1755 is higher in relative viability: 0.428 for the first, 0.689 for the second.

First: NCI-H2023
Second: HCC-15
The relative viability of the first is lower: 0.25 for the first, 0.364 for the second.

Compared with NCI-H1793, PC-14 is lower in relative viability: 0.251 for the first, 0.0723 for the second.

Same assay, conditions: first compound 0.3162 µM

Compared with BEN, HARA is lower in relative viability: 0.515 for the first, 0.0894 for the second.

Going from NCI-H322M to LCLC-97TM1, the relative viability falls from 0.435 to 0.0929.

Compared with NCI-H2009, A-427 is higher in relative viability: 0.131 for the first, 0.184 for the second.

Going from NCI-H441 to NCI-H661, the relative viability rises from 0.154 to 0.238.

Compared with NCI-H1734, NCI-H460 is lower in relative viability: 0.173 for the first, 0.0185 for the second.

Going from NCI-H2347 to SK-LU-1, the relative viability falls from 0.264 to 0.218.

Compared with NCI-H1395, 201T is lower in relative viability: 0.353 for the first, 0.253 for the second.

First: NCI-H1915
Second: HCC-827
The relative viability of the first is lower: 0.0844 for the first, 0.324 for the second.

First: LXF-289
Second: NCI-H23
The relative viability of the first is higher: 0.12 for the first, 0.112 for the second.

First: NCI-H647
Second: CAL-12T
The relative viability of the first is lower: 0.087 for the first, 0.147 for the second.

Going from NCI-H1651 to EPLC-272H, the relative viability falls from 0.518 to 0.12.

Going from NCI-H2228 to NCI-H1792, the relative viability falls from 0.107 to 0.0597.

First: NCI-H1355
Second: NCI-H3122
The relative viability of the first is higher: 0.176 for the first, 0.131 for the second.

Compared with NCI-H1437, NCI-H1755 is higher in relative viability: 0.149 for the first, 0.367 for the second.

First: NCI-H2023
Second: HCC-15
The relative viability of the first is lower: 0.113 for the first, 0.128 for the second.

Going from NCI-H1793 to PC-14, the relative viability falls from 0.177 to 0.0556.

Same assay, conditions: first compound 1 µM

First: BEN
Second: HARA
The relative viability of the first is higher: 0.435 for the first, 0.156 for the second.

Compared with NCI-H322M, LCLC-97TM1 is lower in relative viability: 0.361 for the first, 0.0902 for the second.

First: NCI-H2009
Second: A-427
The relative viability of the first is lower: 0.159 for the first, 0.189 for the second.

First: NCI-H441
Second: NCI-H661
The relative viability of the first is lower: 0.162 for the first, 0.264 for the second.

Going from NCI-H1734 to NCI-H460, the relative viability falls from 0.165 to 0.0133.

Going from NCI-H2347 to SK-LU-1, the relative viability rises from 0.238 to 0.386.

Going from NCI-H1395 to 201T, the relative viability falls from 0.369 to 0.252.

Compared with NCI-H1915, HCC-827 is higher in relative viability: 0.0806 for the first, 0.225 for the second.

First: LXF-289
Second: NCI-H23
The relative viability of the first is lower: 0.102 for the first, 0.14 for the second.

Compared with NCI-H647, CAL-12T is higher in relative viability: 0.0808 for the first, 0.157 for the second.

First: NCI-H1651
Second: EPLC-272H
The relative viability of the first is lower: 0.123 for the first, 0.166 for the second.

Going from NCI-H2228 to NCI-H1792, the relative viability falls from 0.089 to 0.0491.

Compared with NCI-H1355, NCI-H3122 is lower in relative viability: 0.174 for the first, 0.171 for the second.

Compared with NCI-H1437, NCI-H1755 is higher in relative viability: 0.177 for the first, 0.363 for the second.

First: NCI-H2023
Second: HCC-15
The relative viability of the first is lower: 0.102 for the first, 0.125 for the second.

Going from NCI-H1793 to PC-14, the relative viability falls from 0.183 to 0.0339.
